Laboratory results reported in article PMC6199744, “Development of Chemical Proteomics for the Folateome and Analysis of the Kinetoplastid Folateome” (ACS Infectious Diseases, 2018).
Where two headings read alike, the source gives them in different places.

How the values were obtained:
Assay type in all cases: binding
[1] = molecular target: T1, HeLa cell extract proteins (Homo sapiens, UniProt O00743)
T1 construct: endogenous in cells; host or cells: HeLa cell extract
T1 sequence (O00743 1-305): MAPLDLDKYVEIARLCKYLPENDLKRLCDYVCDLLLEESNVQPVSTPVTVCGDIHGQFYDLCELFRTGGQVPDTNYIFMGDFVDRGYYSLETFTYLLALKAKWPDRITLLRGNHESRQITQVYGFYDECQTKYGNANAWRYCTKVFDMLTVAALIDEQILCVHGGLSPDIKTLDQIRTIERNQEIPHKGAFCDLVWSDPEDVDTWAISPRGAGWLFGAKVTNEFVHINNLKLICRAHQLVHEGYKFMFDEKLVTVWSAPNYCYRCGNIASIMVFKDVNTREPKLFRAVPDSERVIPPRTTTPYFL

[2] = molecular target: T2, HeLa cell extract proteins (Homo sapiens, UniProt O95163)
T2 construct: endogenous in cells; host or cells: HeLa cell extract
T2 sequence (O95163 1-1332): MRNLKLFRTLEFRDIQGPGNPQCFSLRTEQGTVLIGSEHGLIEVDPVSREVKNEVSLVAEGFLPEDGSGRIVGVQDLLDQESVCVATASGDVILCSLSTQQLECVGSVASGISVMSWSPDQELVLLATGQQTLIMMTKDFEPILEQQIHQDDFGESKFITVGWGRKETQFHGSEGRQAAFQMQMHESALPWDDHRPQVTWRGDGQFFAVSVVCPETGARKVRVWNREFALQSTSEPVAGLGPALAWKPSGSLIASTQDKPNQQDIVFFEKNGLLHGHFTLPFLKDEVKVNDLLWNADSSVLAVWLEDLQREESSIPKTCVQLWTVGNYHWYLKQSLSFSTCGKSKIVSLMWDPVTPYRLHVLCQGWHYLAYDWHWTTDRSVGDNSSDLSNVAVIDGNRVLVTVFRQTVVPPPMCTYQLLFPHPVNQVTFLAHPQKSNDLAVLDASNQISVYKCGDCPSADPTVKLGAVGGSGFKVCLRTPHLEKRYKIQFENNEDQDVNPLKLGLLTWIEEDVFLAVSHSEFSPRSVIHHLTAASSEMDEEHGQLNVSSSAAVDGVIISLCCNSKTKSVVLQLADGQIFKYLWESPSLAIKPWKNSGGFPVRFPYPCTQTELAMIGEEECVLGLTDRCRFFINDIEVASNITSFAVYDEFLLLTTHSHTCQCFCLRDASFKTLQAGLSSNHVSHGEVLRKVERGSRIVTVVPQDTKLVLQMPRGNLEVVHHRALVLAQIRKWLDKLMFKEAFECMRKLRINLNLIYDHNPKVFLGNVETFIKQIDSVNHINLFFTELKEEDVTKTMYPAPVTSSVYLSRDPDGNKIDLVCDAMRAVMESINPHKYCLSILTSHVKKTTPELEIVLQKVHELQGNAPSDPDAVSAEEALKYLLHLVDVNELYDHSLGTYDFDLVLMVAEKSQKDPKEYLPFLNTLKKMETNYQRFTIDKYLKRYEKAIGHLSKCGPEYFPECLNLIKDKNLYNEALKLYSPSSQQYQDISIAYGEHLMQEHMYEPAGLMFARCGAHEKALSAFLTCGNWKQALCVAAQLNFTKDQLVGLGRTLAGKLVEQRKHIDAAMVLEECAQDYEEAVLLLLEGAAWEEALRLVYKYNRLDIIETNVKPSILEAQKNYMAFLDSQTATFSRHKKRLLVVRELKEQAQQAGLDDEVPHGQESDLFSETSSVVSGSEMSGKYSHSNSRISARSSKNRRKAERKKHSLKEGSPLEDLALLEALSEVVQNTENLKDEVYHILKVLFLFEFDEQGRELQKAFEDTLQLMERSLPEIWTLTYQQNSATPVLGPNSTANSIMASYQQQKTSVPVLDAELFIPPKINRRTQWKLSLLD

[3] = molecular target: T3, HeLa cell extract proteins (Homo sapiens, UniProt P20618)
T3 construct: endogenous in cells; host or cells: HeLa cell extract
T3 sequence (P20618 29-241): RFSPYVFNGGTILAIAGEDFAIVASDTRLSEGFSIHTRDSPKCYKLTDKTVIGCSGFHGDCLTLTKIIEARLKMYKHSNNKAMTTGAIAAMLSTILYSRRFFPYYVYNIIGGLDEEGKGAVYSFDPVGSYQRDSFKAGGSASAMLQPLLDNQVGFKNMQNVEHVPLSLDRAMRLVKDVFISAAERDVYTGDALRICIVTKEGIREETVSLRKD

[4] = molecular target: T4, HeLa cell extract proteins (Homo sapiens, UniProt P29692)
T4 construct: endogenous in cells; host or cells: HeLa cell extract
T4 sequence (P29692 1-281): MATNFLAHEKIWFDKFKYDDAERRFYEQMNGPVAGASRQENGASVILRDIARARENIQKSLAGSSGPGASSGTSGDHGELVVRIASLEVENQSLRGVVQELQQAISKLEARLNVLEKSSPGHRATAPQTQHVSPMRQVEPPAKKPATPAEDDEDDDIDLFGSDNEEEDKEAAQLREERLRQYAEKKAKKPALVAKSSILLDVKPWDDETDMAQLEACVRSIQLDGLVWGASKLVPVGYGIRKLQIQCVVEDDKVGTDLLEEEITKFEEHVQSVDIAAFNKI

[5] = molecular target: T5, HeLa cell extract proteins (Homo sapiens, UniProt Q13310)
T5 construct: endogenous in cells; host or cells: HeLa cell extract
T5 sequence (Q13310 whole entry): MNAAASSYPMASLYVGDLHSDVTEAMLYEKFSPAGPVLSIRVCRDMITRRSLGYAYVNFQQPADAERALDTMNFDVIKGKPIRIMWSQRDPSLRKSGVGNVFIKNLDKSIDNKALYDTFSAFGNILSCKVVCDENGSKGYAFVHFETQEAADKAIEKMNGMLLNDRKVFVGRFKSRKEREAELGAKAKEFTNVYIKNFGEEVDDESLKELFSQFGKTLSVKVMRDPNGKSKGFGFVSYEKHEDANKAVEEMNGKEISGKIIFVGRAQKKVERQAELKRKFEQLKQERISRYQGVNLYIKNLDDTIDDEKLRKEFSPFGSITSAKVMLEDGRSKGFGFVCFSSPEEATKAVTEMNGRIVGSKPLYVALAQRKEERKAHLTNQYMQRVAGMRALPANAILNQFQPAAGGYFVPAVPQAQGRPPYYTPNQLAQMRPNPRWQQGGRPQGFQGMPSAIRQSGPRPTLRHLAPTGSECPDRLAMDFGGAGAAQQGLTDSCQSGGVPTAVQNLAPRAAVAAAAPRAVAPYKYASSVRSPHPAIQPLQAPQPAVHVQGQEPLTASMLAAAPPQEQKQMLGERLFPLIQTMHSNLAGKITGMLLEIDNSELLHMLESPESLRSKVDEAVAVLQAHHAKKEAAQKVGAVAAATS

Row | Structure (SMILES) | fold changes relative to vehicle control ([1]; HeLa, protein PPP6C) | fold changes relative to vehicle control ([2]; HeLa, captured protein IKBKAP) | fold changes relative to vehicle control ([3]; HeLa, protein PSMB1) | fold changes relative to vehicle control ([4]; protein EEF1D, HeLa) | fold changes relative to vehicle control ([5]; HeLa, protein PABPC4) | fold changes relative to vehicle control [1] | fold changes relative to vehicle control [2] | fold changes relative to vehicle control [3] | fold changes relative to vehicle control [4] | fold changes relative to vehicle control [5] | fold changes relative to vehicle control ([2]; protein IKBKAP, HeLa) | fold changes relative to vehicle control ([3]; protein PSMB1, HeLa) | fold changes relative to vehicle control ([5]; captured protein PABPC4, HeLa)
1 | Nc1nc2c(c(=O)[nH]1)N(C=O)C(CNc1ccc(C(=O)N[C@@H](CCC(=O)O)C(=O)O)cc1)CN2 (some centres unmarked) [LEU, leucovorin] | 0.99 | 1.15 | 0.96 | 0.99 | 0.83 |  |  |  |  |  |  |  | 
2 | Nc1nc2[nH]cc(CCc3ccc(C(=O)N[C@@H](CCC(=O)O)C(=O)O)cc3)c2c(=O)[nH]1 [PTX, pemetrexed] |  |  |  |  |  | 0.94 | 1.11 | 0.78 | 1.01 | 0.93 |  |  | 
3 | CCCCCCOc1ccc(Cc2cnc(N)nc2N)cc1 [compound 1] | 1.01 |  |  | 1.26 |  |  |  |  |  |  | 1.33 | 1.05 | 0.86
4 | CCCCCCOc1cccc(Cc2cnc(N)nc2N)c1 [compound 2] | 0.99 |  |  | 1.8 |  |  |  |  |  |  | 1.3 | 1.28 | 1.2
5 | Nc1nc2cccc(-c3ccccc3)c2n1Cc1ccc(Cl)c(Cl)c1 [compound 3] | 1.04 |  |  | 1.1 |  |  |  |  |  |  | 1.12 | 0.92 | 0.94
6 | NCCOCCOCC(=O)Nc1nc2ncc(CNc3ccc(C(=O)NC(CCC(=O)O)C(=O)O)cc3)nc2c(=O)[nH]1 (centres unmarked) [compound 6] | 1.05 | 1.2 | 0.94 | 1.09 | 1.06 |  |  |  |  |  |  |  | 
7 | NCCCNc1ccc(C(=O)NC(CCC(=O)O)C(=O)O)cc1 (centres unmarked) [compound 7] | 1.04 | 1.01 | 0.86 | 0.93 | 1 |  |  |  |  |  |  |  | 
